In US8937068B2, “Pyridopyrazine derivatives and their use” (Zentaris GmbH, priority 2005, dated 2015):

Key:
[1] = biological target: p38alpha (Homo sapiens (Human), UniProt Q16539); experiment: Cell-free kinase assay (ALPHA technology), p38alpha; type: biochemical; conditions: 10 μM ATP
Method: (§1) The inhibitory effect of the compounds according to the invention was tested on various serine/threonine, tyrosine and lipid kinases in enzymatic assays. Recombinant human kinases such as, for example, Erk2, PI3Kalpha, -beta, -gamma, -delta, p38alpha, p38gamma, Jnk1, Jnk2 and others were used in this case, partly as full-length kinases, partly as shortened fragments, but at least consisting of the functional kinase domains. The commercial kinase proteins (Proqinase, Upstate) were used as recombinant fusion proteins with GST (glutathion-S-transferase) or His-Tag. Depending on the type of substrate, the various kinase reactions were quantified by means of suitable ALPHA™ beads (Perkin-Elmer).
(§2) The substance testing is described in detail hereinafter for the Erk assay.
(§3) a) MAPK-ALPHAs (e.g. Erk2): the test substance, 0.625 ng Erk2 (#14-173, Upstate), 10 μM ATP and 15 nM biotinylated MBP (myelin basic protein) substrate were incubated on a 384-well Optiplate (Perkin-Elmer) in a volume of 15 μl for 1 h in 25 mM Tris, 10 mM MgCl2, 0.1% Tween-20, 100 μM NaVO4, 2 mM DTT at pH 7.5. The kinase reaction was then stopped by adding 10 μl of the ALPHA bead mixes (10 μg/ml, #6760617/Perkin-Elmer) pre-incubated with anti-phospho MBP antibody (320 pM, #05-429/Upstate) in 25 mM Tris, 200 mM NaCl, 110 nM EDTA and 0.3% BSA and left to stand overnight. b) PI3K-ALPHAs (e.g. PI3Kalpha): the test substance, 1 ng PI3Kalpha (#14-602, Upstate), 100 μM ATP and 20 μM PIP2 substrate (#P4508, Echelon) were incubated on a 384-well Optiplate (Perkin-Elmer) for 1 h in 50 mM Hepes, 50 mM NaCl, 5 mM MgCl2, 0.05% Chaps, 5 mM DTT at pH 7.4. The kinase reaction was then stopped by adding ALPHA bead mixes (10 μg/ml, #6760603/Perkin-Elmer) pre-incubated with 1 nM GST:Grp1 fusion protein (Upstate) and 15 nM biotinylated PIP3 (#C-39B6/Echelon) in 50 mM Hepes, 50 mM NaCl, 50 mM EDTA and 0.1% BSA and left to stand overnight.
(§4) The fluorescence was detected the following morning in a Fusion™^aα-system (Perkin-Elmer).
(§5) The %-inhibition values per substance concentration were calculated by means of the following formula from the raw data determined in the Fusion™ ? :
(§6) Eight determinations were made for each control and two for the substance samples. The 0% control either contains no ATP or no substrate, the 100% control (fully active kinase) contains no test substance. The IC50 values were determined using GraphPadPrism.

[2] = system: Jnk1 + Jnk2; experiment: Cell-free kinase assay (ALPHA technology), Jnk1 + Jnk2; type: biochemical, human; conditions: 10 μM ATP
Method: as §1, §2, §3, §4, §5, §6

[3] = biological target: PI3Kalpha (Homo sapiens (Human), UniProt P42336); experiment: Cell-free kinase assay (ALPHA technology), PI3Kalpha; type: biochemical; conditions: 100 μM ATP
Method: as §1, §2, §3, §4, §5, §6

[4] = biological target: Erk2 (Homo sapiens, UniProt P28482); experiment: Cell-free kinase assay (ALPHA technology), Erk2; type: biochemical; conditions: 10 μM ATP
Method: The inhibitory effect of the compounds according to the invention was tested on various serine/threonine, tyrosine and lipid kinases in enzymatic assays. […] The commercial kinase proteins (Proqinase, Upstate) were used as recombinant fusion proteins with GST (glutathion-S-transferase) or His-Tag. Depending on the type of substrate, the various kinase reactions were quantified by means of suitable ALPHA™ beads (Perkin-Elmer). The substance testing is described in detail hereinafter for the Erk assay. […] a) MAPK-ALPHAs (e.g. […] The kinase reaction was then stopped by adding ALPHA bead mixes (10 μg/ml, #6760603/Perkin-Elmer) pre-incubated with 1 nM GST:Grp1 fusion protein (Upstate) and 15 nM biotinylated PIP3 (#C-39B6/Echelon) in 50 mM Hepes, 50 mM NaCl, 50 mM EDTA and 0.1% BSA and left to stand overnight. The fluorescence was detected the following morning in a Fusion™^aα-system (Perkin-Elmer). […] Eight determinations were made for each control and two for the substance samples. […] The IC50 values were determined using GraphPadPrism.

Sequence of PI3Kalpha (P42336 whole entry): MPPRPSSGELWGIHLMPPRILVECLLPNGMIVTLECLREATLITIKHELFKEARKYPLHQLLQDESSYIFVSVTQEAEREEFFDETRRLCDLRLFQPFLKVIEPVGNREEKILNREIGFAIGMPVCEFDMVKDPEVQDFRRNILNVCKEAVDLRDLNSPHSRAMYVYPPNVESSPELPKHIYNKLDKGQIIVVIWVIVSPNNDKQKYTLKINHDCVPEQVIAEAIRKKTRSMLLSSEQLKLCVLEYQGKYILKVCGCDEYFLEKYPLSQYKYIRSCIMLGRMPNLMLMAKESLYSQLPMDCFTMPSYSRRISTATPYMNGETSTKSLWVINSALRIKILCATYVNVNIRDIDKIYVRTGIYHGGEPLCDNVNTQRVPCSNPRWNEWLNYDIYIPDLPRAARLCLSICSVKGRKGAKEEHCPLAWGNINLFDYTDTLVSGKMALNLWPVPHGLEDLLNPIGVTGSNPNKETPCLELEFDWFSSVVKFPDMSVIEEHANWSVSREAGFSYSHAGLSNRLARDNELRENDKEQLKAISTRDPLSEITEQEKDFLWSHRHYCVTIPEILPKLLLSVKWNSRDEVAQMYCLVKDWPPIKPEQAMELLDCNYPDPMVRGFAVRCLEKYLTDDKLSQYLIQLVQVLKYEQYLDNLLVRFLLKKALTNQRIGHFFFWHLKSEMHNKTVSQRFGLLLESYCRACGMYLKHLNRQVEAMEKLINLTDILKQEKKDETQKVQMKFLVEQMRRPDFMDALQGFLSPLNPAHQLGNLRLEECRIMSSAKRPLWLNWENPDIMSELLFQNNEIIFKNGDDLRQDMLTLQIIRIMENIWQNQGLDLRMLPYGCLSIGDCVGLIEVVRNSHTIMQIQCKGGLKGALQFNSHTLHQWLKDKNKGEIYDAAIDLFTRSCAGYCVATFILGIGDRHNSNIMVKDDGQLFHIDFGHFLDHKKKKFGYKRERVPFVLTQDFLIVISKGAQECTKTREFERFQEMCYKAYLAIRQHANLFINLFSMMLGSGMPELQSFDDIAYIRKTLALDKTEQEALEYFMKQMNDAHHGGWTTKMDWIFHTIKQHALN
Sequence of PI3Kalpha (P27986 whole entry partner): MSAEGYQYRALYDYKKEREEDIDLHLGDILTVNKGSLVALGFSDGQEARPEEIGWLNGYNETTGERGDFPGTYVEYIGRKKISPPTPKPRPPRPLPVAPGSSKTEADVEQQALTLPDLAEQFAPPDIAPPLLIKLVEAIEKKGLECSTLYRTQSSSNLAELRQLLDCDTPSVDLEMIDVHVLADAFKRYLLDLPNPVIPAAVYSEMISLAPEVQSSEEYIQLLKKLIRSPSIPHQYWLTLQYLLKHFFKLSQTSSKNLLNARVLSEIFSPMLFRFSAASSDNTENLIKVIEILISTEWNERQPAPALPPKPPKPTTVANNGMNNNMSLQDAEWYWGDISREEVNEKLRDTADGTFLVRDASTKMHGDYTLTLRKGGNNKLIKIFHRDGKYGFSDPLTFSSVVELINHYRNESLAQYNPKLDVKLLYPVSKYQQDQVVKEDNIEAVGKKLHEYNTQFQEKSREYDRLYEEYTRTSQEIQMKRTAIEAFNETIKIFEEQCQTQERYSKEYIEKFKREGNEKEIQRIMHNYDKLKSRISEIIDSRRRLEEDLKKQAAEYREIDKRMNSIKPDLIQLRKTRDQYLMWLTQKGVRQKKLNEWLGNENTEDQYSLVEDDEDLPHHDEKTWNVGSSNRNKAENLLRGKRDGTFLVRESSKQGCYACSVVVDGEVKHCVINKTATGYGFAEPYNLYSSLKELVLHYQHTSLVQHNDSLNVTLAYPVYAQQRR
Sequence of p38alpha (Q16539 whole entry, the tested form may be a part): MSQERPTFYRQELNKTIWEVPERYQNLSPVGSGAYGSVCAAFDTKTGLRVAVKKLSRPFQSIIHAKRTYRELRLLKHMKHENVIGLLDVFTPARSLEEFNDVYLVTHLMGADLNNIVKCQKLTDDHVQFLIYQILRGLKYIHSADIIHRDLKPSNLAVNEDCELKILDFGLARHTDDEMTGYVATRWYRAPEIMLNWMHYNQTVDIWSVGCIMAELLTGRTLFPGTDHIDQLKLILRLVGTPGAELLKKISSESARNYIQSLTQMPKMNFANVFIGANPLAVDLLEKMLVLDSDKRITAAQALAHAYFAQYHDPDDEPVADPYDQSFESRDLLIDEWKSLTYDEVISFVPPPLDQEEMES
Sequence of Erk2 (P28482 2-360 limits assumed): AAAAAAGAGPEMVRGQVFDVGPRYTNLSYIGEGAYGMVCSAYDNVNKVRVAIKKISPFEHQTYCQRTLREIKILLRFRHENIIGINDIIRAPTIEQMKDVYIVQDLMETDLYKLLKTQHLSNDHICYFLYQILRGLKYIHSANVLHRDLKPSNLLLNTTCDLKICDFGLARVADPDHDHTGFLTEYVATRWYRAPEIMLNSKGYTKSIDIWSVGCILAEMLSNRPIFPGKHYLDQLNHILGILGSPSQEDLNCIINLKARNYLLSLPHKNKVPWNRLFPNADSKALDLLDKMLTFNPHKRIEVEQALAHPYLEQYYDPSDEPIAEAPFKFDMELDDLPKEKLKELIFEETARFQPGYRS

| Structure (SMILES) | IC50 [1] [µM] | IC50 [2] [µM] | IC50 [3] [µM] | IC50 [4] [µM] |
| --- | --- | --- | --- | --- |
| CCNC(=O)Nc1ccc2ncc(-c3ccc(O)cc3)nc2n1 [Compound 43, 1-Ethyl-3-[3-(4-hydroxy-phenyl)-pyrido[2,3-b]pyrazin-6-yl]-urea] | > 100 | 5.5 | 6.2 | 0.006 |
| CCNC(=S)Nc1ccc2ncc(-c3ccc(O)cc3)nc2n1 [Compound 149, 1-Ethyl-3-[3-(4-hydroxy-phenyl)-pyrido[2,3-b]pyrazin-6-yl]-thiourea] | > 100 | > 31.6 | 3.5 | 0.954 |
| CCNC(=O)Nc1ccc2ncc(-c3ccc(C#N)s3)nc2n1 [Compound 174, 1-[3-(5-Cyano-thiophen-2-yl)-pyrido[2,3-b]pyrazin-6-yl]-3-ethyl-urea] | > 31.6 | 4.6 | 3 | 4.9 |
| CCNC(=O)Nc1ccc2ncc(Nc3ccc(F)cc3)nc2n1 [Compound 167, 1-Ethyl-3-[3-(4-fluoro-phenylamino)-pyrido[2,3-b]pyrazin-6-yl]-urea] | > 100 | 27.3 | 1.1 | > 100 |
| CCNC(=O)Nc1ccc2ncc(-c3ccc(OCCCN4CCOCC4)cc3)nc2n1 [Compound 148, 1-Ethyl-3-{3-[4-(3-morpholin-4-yl-propoxy)-phenyl]-pyrido[2,3-b]pyrazin-6-yl}-urea] | > 100 | 13.7 | 1.4 | 1.8 |
| CCNC(=O)Nc1ccc2ncc(Nc3ccc(C)c(OC)c3)nc2n1 [Compound 163, 1-Ethyl-3-[3-(3-methoxy-4-methyl-phenylamino)-pyrido[2,3-b]pyrazin-6-yl]-urea] | > 100 | > 31.6 | 0.096 | 26.9 |
| CNC(=S)Nc1ccc2ncc(-c3ccc(N)cc3)nc2n1 [Compound 44, 1-[3-(4-Amino-phenyl)-pyrido[2,3-b]pyrazin-6-yl]-3-methyl-thiourea] | > 100 | 1.5 | 3.8 | 2.5 |
| CCNC(=O)Nc1ccc2ncc(Nc3cc(C(=O)O)cc(C(F)(F)F)c3)nc2n1 [Compound 189, 3-[6-(3-Ethyl-ureido)-pyrido[2,3-b]-pyrazin-3-ylamino]-5-trifluoromethyl-benzoic acid] | > 100 | 6.2 | 0.237 | 20.3 |
| CCNC(=O)Nc1ccc2ncc(Nc3cnc4ccccc4c3)nc2n1 [Compound 179, 1-Ethyl-3-[3-(chinolin-3-ylamino)-pyrido[2,3-b]pyrazin-6-yl]-urea] | 1.4 | 8.1 | 0.202 | 8 |
| CCNC(=O)Nc1ccc2ncc(-c3cccc(C(N)=O)c3)nc2n1 [Compound 155, 3-[6-(3-Ethyl-ureido)-pyrido[2,3-b]-pyrazin-3-yl]-benzamide] | > 100 | 7.8 | 5 | > 100 |
| CCNC(=O)Nc1ccc2ncc(Nc3cccnc3)nc2n1 [Compound 161, 1-Ethyl-3-[3-(pyridin-3-ylamino)-pyrido-[2,3-b]pyrazin-6-yl]-urea] | > 100 | > 100 | 1.1 | > 100 |
| COc1cc(-c2cnc3ccc(NC(=O)NCCCCO)nc3n2)ccc1O [Compound 168, 1-(4-Hydroxy-butyl)-3-[3-(4-hydroxy-3-methoxy-phenyl)-pyrido[2,3-b]pyrazin-6-yl]-urea] | > 100 | 2.5 | 0.612 | 0.15 |
| CCNC(=O)Nc1ccc2ncc(Nc3ccc(CC)cc3)nc2n1 [Compound 162, 1-Ethyl-3-[3-(4-ethyl-phenylamino)-pyrido[2,3-b]pyrazin-6-yl]-urea] | > 100 | > 31.6 | 0.19 | > 100 |
| CCNC(=O)Nc1ccc2ncc(-c3ccc(Cl)cc3OC)nc2n1 [Compound 171, 1-[3-(4-Chloro-2-methoxy-phenyl)-pyrido[2,3-b]pyrazin-6-yl]-3-ethyl-urea] | > 100 | 1.4 | 3 | 0.084 |
| O=C(NCCCO)Nc1ccc2ncc(-c3ccccc3)nc2n1 [Compound 147, 1-(3-Hydroxy-propyl)-3-(3-phenyl-pyrido[2,3-b]pyrazin-6-yl)-urea] | > 100 | 14.2 | 4.1 | 0.711 |
| CCN(C(C)=O)C(=O)Nc1ccc2ncc(-c3ccccc3)nc2n1 [Compound 46, 1-Acetyl-1-ethyl-3-(3-phenyl-pyrido[2,3-b]pyrazin-6-yl)-urea] | 0.495 | > 100 | > 100 | 9.5 |
| CCNC(=O)Nc1ccc2ncc(-c3ccc(O)cc3Cl)nc2n1 [Compound 170, 1-[3-(2-Chloro-4-hydroxy-phenyl)-pyrido[2,3-b]pyrazin-6-yl]-3-ethyl-urea] | > 31.6 | 1.1 | 2.4 | 0.103 |
| CCNC(=O)Nc1ccc2ncc(Nc3ccccc3C)nc2n1 [Compound 160, 1-Ethyl-3-(3-o-tolylamino-pyrido[2,3-b]-pyrazin-6-yl)-urea] | > 31.6 | > 31.6 | 2.9 | 5.8 |
| CCNC(=O)Nc1ccc2ncc(-c3cccc(O)c3)nc2n1 [Compound 151, 1-Ethyl-3-[3-(3-hydroxy-phenyl)-pyrido[2,3-b]pyrazin-6-yl]-urea] | > 100 | 2.9 | 1.5 | 0.104 |
| CCNC(=O)Nc1ccc2ncc(Nc3ccnc(Cl)c3)nc2n1 [Compound 184, 1-[3-(2-Chloro-pyridin-4-ylamino)-pyrido[2,3-b]pyrazin-6-yl]-3-ethyl-urea] | > 100 | 6.3 | 0.133 | > 100 |
| CCNC(=O)Nc1ccc2ncc(Nc3cnccn3)nc2n1 [Compound 181, 1-Ethyl-3-[3-(pyrazin-2-ylamino)-pyrido[2,3-b]pyrazin-6-yl]-urea] | > 100 | 4.3 | 0.739 | 1.7 |
| CCNC(=O)Nc1ccc2ncc(Nc3ccn(C)n3)nc2n1 [Compound 166, 1-Ethyl-3-[3-(1-methyl-1H-pyrazol-3-ylamino)-pyrido[2,3-b]pyrazin-6-yl]-urea] | > 100 | 21.9 | 1.3 | 13.7 |
| CCNC(=O)Nc1ccc2ncc(Nc3ccc(OC)c(Cl)c3)nc2n1 [Compound 177, 1-[3-(3-Chloro-4-methoxy-phenylamino)-pyrido[2,3-b]pyrazin-6-yl]-3-ethyl-urea] | > 100 | 3.9 | 0.295 | > 31.6 |
| CCNC(=O)Nc1ccc2ncc(Nc3ccc4ccccc4c3)nc2n1 [Compound 178, 1-Ethyl-3-[3-(naphthalin-2-ylamino)-pyrido[2,3-b]pyrazin-6-yl]-urea] | > 31.6 | 2.3 | 0.164 | > 100 |
| CCNC(=O)Nc1ccc2ncc(Nc3ccc(C)cn3)nc2n1 [Compound 165, 1-Ethyl-3-[3-(5-methyl-pyridin-2-yl-amino)-pyrido[2,3-b]pyrazin-6-yl]-urea] | > 100 | 27.1 | 1.2 | 19.4 |
